This is an account of results in patent US20100256104A1, “NOVEL AMIDE COMPOUNDS” (ASTRAZENECA R&D, priority 2009, published 2010).

This assay addresses T1, recombinant human GR (Homo sapiens, UniProt P04150).
T1 construct: purchased Panvera/Invitrogen P2812 (kit P2893)
T1 sequence (P04150 1-777): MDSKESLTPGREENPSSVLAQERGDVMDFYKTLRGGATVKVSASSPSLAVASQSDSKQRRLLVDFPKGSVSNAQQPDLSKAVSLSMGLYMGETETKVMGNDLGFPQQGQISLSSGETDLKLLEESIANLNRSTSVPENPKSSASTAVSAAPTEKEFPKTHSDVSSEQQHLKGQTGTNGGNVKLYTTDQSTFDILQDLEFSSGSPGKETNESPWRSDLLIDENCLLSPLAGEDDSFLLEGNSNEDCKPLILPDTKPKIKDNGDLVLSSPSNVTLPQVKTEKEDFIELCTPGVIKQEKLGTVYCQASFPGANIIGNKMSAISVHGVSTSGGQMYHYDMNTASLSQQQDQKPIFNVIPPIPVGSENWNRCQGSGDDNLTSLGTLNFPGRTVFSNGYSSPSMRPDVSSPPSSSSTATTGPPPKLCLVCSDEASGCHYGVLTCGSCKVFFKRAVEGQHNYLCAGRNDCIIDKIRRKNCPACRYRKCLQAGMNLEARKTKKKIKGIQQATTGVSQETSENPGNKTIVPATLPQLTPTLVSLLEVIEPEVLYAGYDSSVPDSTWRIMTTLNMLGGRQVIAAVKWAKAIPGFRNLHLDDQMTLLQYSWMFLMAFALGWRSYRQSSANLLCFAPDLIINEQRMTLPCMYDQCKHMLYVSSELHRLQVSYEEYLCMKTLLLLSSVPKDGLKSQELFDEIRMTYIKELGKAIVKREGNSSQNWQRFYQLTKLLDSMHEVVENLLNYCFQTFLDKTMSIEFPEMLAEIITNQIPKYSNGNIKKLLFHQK
Put plainly: Human Glucocorticoid Receptor (GR) Assay, fluorescence polarization competition with GS Red tracer. The conditions noted are these: 2 hours at room temperature, 100% control 10 μM Dexamethasone, XLfit model 205, read-out: Inhibition of GR binding, IC50. As for the experimental part:
Human Glucocorticoid Receptor (GR) Assay The assay is based on a commercial kit from Panvera/Invitrogen (Part number P2893). The assay technology is fluorescence polarization. The kit utilises recombinant human GR (Panvera, Part number P2812), a Fluoromone™ labelled tracer (GS Red, Panvera, Part number P2894) and a Stabilizing Peptide 10X (Panvera, Part number P2815). The GR and Stabilizing Peptide reagents are stored at −70° C. while the GS Red is stored at −20° C. Also included in the kit are 1M DTT (Panvera, Part number P2325, stored at −20° C.) and GR Screening buffer 10X (Panvera, Part number P2814, stored at −70° C. initially but once thawed stored at room temperature). Avoid repeated freeze/thaws for all reagents. The GR Screening buffer 10X comprises 100 mM potassium phosphate, 200 mM sodium molybdate, 1 mM EDTA and 20% DMSO. Test compounds (1 μL) and controls (1 μL) in 100% DMSO were added to black polystyrene 384-well plates (Greiner low volume black flat-bottom, part number 784076). 0% control was 100% DMSO and 100% control was 10 μM Dexamethasone. Background solution (8 μL; assay buffer 10X, Stabilizing Peptide, DTT and ice cold MQ water) was added to the background wells. GS Red solution (7 μL; assay buffer 10X, Stabilizing Peptide, DTT, GS Red and ice cold water) was added to all wells except background wells. GR solution (7 μL; assay buffer 10X, Stabilizing Peptide, DTT, GR and ice cold water) was added to all wells. The plate was sealed and incubated in a dark at room temperature for 2 hours. The plate was read in an Analyst plate reader (LJL Biosystems/Molecular Devices Corporation) or other similar plate reader capable of recording fluorescence polarization (excitation wavelength 530 nm, emission wavelength 590 nm and a dichroic mirror at 561 nm).
For orientation: Fluorescence polarisation rises when a labelled molecule tumbles more slowly, as on binding a larger partner.
Turning to `CCC(=O)O[C@]1(C(=O)SCF)CC[C@H]2[C@@H]3CCC4=Cc5c(cnn5-c5cccc(C(=O)N6CCC[C@@H]6C(N)=O)c5)C[C@]4(C)[C@H]3[C@@H](O)C[C@@]21C` [Example 13, (1R,3aS,3bS,10aR,10bS,11S,12aS)-7-(3-{[(2R)-2-Carbamoylpyrrolidin-1-yl]carbonyl}phenyl)-1-{[(fluoromethyl)sulfanyl]carbonyl}-11-hydroxy-10a,12a-dimethyl-1,2,3,3a,3b,4,5,7,10,10a,10b,11,12,12a-tetradecahydrocyclopenta[5,6]naphtho[1,2-f]indazol-1-yl propanoate], the IC50 (in general, the concentration that inhibits the measured activity by half) was 2.5 nM.
Turning to `CCC(=O)O[C@]1(C(=O)SCC#N)CC[C@H]2[C@@H]3CCC4=Cc5c(cnn5-c5cccc(C(=O)N6CCC[C@@H]6C(N)=O)c5)C[C@]4(C)[C@H]3[C@@H](O)C[C@@]21C` [Example 14, (1R,3aS,3bS,10aR,10bS,11S,12aS)-7-(3-{[(2R)-2-Carbamoylpyrrolidin-1-yl]carbonyl}phenyl)-1-{[(cyanomethyl)sulfanyl]carbonyl}-11-hydroxy-10a,12a-dimethyl-1,2,3,3a,3b,4,5,7,10,10a,10b,11,12,12a-tetradecahydrocyclopenta[5,6]naphtho[1,2-f]indazol-1-yl propanoate], the IC50 is 6 nM.
In the case of `COCC(=O)O[C@]1(C(=O)SCF)CC[C@H]2[C@@H]3CCC4=Cc5c(cnn5-c5cccc(C(=O)N6CCC[C@@H]6C(N)=O)c5)C[C@]4(C)[C@@]3(F)[C@@H](O)C[C@@]21C` [Example 15, (1R,3aS,3bS,10aS,10bR,11S,12aS)-7-(3-{[(2R)-2-Carbamoylpyrrolidin-1-yl]carbonyl}phenyl)-10b-fluoro-1-{[(fluoromethyl)sulfanyl]carbonyl}-11-hydroxy-10a,12a-dimethyl-1,2,3,3a,3b,4,5,7,10,10a,10b,11,12,12a-tetradecahydrocyclopenta[5,6]naphtho[1,2-f]indazol-1-yl methoxyacetate], the IC50 came to 4.3 nM.
For the compound `COCC(=O)O[C@]1(C(=O)SCF)CC[C@H]2[C@@H]3CCC4=Cc5c(cnn5-c5cccc(C(=O)N6CCC[C@@H]6C(N)=O)c5)C[C@]4(C)[C@H]3[C@@H](O)C[C@@]21C` [Example 16, (1R,3aS,3bS,10aR,10bS,11S, 12aS)-7-(3-{[(2R)-2-carba-moylpyrrolidin-1-yl]carbonyl}phenyl)-1-{[(fluoromethyl)sulfanyl]carbonyl}-11-hydroxy-10a,12a-dimethyl-1,2,3,3a,3b,4,5,7,10,10a,10b, 11,12,12a-tetradecahydro-cyclopenta[5,6]naphtho[1,2-f] indazol-1-yl methoxyacetate], the IC50 worked out at 9 nM.
As for `COCC(=O)O[C@]1(C(=O)SCF)CC[C@H]2[C@@H]3CCC4=Cc5c(cnn5-c5cccc(C(=O)NCC(N)=O)c5)C[C@]4(C)[C@@]3(F)[C@@H](O)C[C@@]21C` [Example 17, (1R,3aS,3bS,10aS,10bR,11S, 12aS)-7-{3-[(2-amino-2-oxoethyl)carbamoyl]-phenyl}-10b-fluoro-1-{[(fluoromethyl)sulfanyl]carbonyl}-11-hydroxy-10a,12a-dimethyl-1,2,3,3a,3b,4,5,7,10,10a,10b, 11,12,12a-tetradecahydro-cyclopenta[5,6]naphtho[1,2-f] indazol-1-yl methoxyacetate], the figure is 3 nM; as for `CCC(=O)O[C@]1(C(=O)SCF)CC[C@H]2[C@@H]3CCC4=Cc5c(cnn5-c5cccc(C(=O)NCC(N)=O)c5)C[C@]4(C)[C@H]3[C@@H](O)C[C@@]21C` [Example 18, (1R,3aS,3bS,10aR,10bS,11S, 12aS)-7-{3-[(2-amino-2-oxoethyl)carbamoyl]phenyl}-1-{[(fluoromethyl)sulfanyl]carbonyl}-11-hydroxy-10a, 12a-dimethyl-1,2,3,3a,3b,4,5,7,10,10a,10b,11,12,12a-tetradecahydrocyclopenta[5,6] naphtho[1,2-f]indazol-1-yl propanoate], 1.4 nM.
As to `COCC(=O)O[C@]1(C(=O)SCF)[C@H](C)C[C@H]2[C@@H]3CCC4=Cc5c(cnn5-c5cccc(C(=O)N[C@@H](C)C(N)=O)c5)C[C@]4(C)[C@@]3(F)[C@@H](O)C[C@@]21C` [Example 22, (1R,2R,3aS,3bS,10aS,10bR,11S,12aS)-7-(3-{[(1S)-2-Amino-1-methyl-2-oxoethyl]carbamoyl}phenyl)-10b-fluoro-1-{[(fluoromethyl)sulfanyl]carbonyl}-11-hydroxy-2,10a,12a-trimethyl-1,2,3,3a,3b,4,5,7,10,10a,10b,11,12,12a-tetradecahydrocyclopenta[5,6]naphtho[1,2-f]indazol-1-yl methoxyacetate], the concentration for half-maximal inhibition (IC50) came to 1.9 nM.
As for `CCC(=O)O[C@]1(C(=O)SCF)CC[C@H]2[C@@H]3C[C@H](C)C4=Cc5c(cnn5-c5cccc(C(=O)N[C@@H](C)C(N)=O)c5)C[C@]4(C)[C@H]3[C@@H](O)C[C@@]21C` [Example 23, (1R,3aS,3bS,5S, 10aR,10bS,11S,12aS)-7-(3-{[(1S)-2-amino-1-methyl-2-oxoethyl]carbamoyl}phenyl)-1-{[(fluoromethyl)sulfanyl]carbonyl}-11-hydroxy-5,10a,12a-trimethyl-1,2,3,3a,3b,4,5,7,10, 10a,10b,11,12,12a-tetradecahydrocyclo-penta[5,6]naphtho [1,2-f]indazol-1-yl propanoate], the figure is 4 nM.
For the compound `CCC(=O)O[C@]1(C(=O)SCF)CC[C@H]2[C@@H]3C[C@H](C)C4=Cc5c(cnn5-c5cccc(C(=O)N[C@H](C)C(N)=O)c5)C[C@]4(C)[C@H]3[C@@H](O)C[C@@]21C` [Example 24, (1R,3aS,3bS,5S,10aR, 10bS,11S,12aS)-7-(3-{[(1R)-2-amino-1-methyl-2-oxoethyl]carbamoyl}phenyl)-1-{[(fluoromethyl)sulfanyl]carbonyl}-11-hydroxy-5,10a,12a-trimethyl-1,2,3,3a,3b,4,5,7,10, 10a,10b,11,12,12a-tetradecahydrocyclo-penta[5,6]naphtho [1,2-f]indazol-1-yl propanoate], the 50% inhibitory concentration (IC50) is 2.1 nM.
Regarding `CCC(=O)O[C@]1(C(=O)SCF)[C@H](C)C[C@H]2[C@@H]3CCC4=Cc5c(cnn5-c5cccc(C(=O)N[C@@H](C)C(N)=O)c5)C[C@]4(C)[C@@]3(F)[C@@H](O)C[C@@]21C` [Example 25, (1R,2R,3aS,3bS, 10aS,10bR,11S,12aS)-7-(3-{[(1S)-2-amino-1-methyl-2-oxoethyl]carbamoyl}phenyl)-10b-fluoro-1-{[(fluoromethyl)-sulfanyl]carbonyl}-11-hydroxy-2,10a,12a-trimethyl-1,2,3,3a,3b,4,5,7,10, 10a,10b,11,12,12a-tetradecahydrocyclo-penta[5,6]naphtho [1,2-f]indazol-1-yl propanoate], the IC50 came out at 2.8 nM.
The figure for `CCC(=O)O[C@]1(C(=O)SCF)[C@H](C)C[C@H]2[C@@H]3CCC4=Cc5c(cnn5-c5cccc(C(=O)N[C@H](C)C(N)=O)c5)C[C@]4(C)[C@@]3(F)[C@@H](O)C[C@@]21C` [Example 26, (1R,2R,3aS,3bS, 10aS,10bR,11S,12aS)-7-(3-{[(1R)-2-amino-1-methyl-2-oxoethyl]carbamoyl}phenyl)-10b-fluoro-1-{[(fluoromethyl)-sulfanyl]carbonyl}-11-hydroxy-2,10a,12a-trimethyl-1,2,3,3a,3b,4,5,7,10, 10a,10b,11,12,12a-tetradecahydrocyclo-penta[5,6]naphtho [1,2-f]indazol-1-yl propanoate] is 2 nM.
